Laboratory results taken from the supplement of paper PMC5303821, “Major sulfonate transporter Soa1 in Saccharomyces cerevisiae and considerable substrate diversity in its fungal family” (Nature Communications, 2017).

Key:
Conditions in all cases: sulfur source concentration 200 µM; S. cerevisiae S288C/BY sul1Δ sul2Δ soa1Δ with transporter ortholog inserted at SOA1 locus; sulfur-free B medium, 4% glucose, pH 6.5, sole sulfur source
[1] = system: Saccharomyces eubayanus_SOA1; test: maximal culture density with compound as sole sulfur source (OD600); higher = better growth
[2] = system: Metarhizium robertsii_XP_007821441; test: as above
[3] = system: Aspergillus nidulans_XP_661733; test: as above
[4] = system: Fusarium oxysporum_ENH65823; test: as above
[5] = system: Metarhizium robertsii_XP_007822519; test: as above
[6] = system: Aspergillus nidulans (IAM 2006)_astA; test: as above
[7] = system: Saccharomyces cerevisiae_SOA1; test: as above
[8] = system: Aspergillus nidulans_XP_661711; test: as above
[9] = system: Saccharomyces uvarum_SOA2; test: as above
[10] = system: soa1 del; test: as above
[11] = system: Saccharomyces eubayanus_SOA2; test: as above
[12] = system: Aspergillus nidulans_XP_660670; test: as above
[13] = system: Aspergillus nidulans_CBF80346; test: as above
[14] = system: Saccharomyces eubayanus_SOA1; test: maximal growth rate with compound as sole sulfur source (OD600 per h); higher = better growth / uptake of the sulfur source
[15] = system: Metarhizium robertsii_XP_007821441; test: as above
[16] = system: Aspergillus nidulans_XP_681611; test: as above
[17] = system: Aspergillus nidulans_XP_661733; test: as above
[18] = system: Fusarium oxysporum_ENH65823; test: as above
[19] = system: Metarhizium robertsii_XP_007822519; test: as above
[20] = system: Aspergillus nidulans (IAM 2006)_astA; test: as above
[21] = system: Saccharomyces cerevisiae_SOA1; test: as above
[22] = system: Aspergillus nidulans_XP_661711; test: as above
[23] = system: Ogataea parapolymorpha_XP_013935289; test: as above
[24] = system: Ogataea parapolymorpha_XP_013932458; test: as above
[25] = system: Saccharomyces uvarum_SOA2; test: as above
[26] = system: Aspergillus nidulans_CBF74694; test: as above
[27] = system: Aspergillus nidulans_XP_660563; test: as above
[28] = system: Saccharomyces uvarum_SOA1; test: as above
[29] = system: soa1 del; test: as above
[30] = system: Ogataea parapolymorpha_XP_013936897; test: as above
[31] = system: Saccharomyces eubayanus_SOA2; test: as above
[32] = system: Aspergillus nidulans_XP_660670; test: as above
[33] = system: Metarhizium robertsii_XP_007823832; test: as above
[34] = system: Aspergillus nidulans_CBF80346; test: as above

CCS(=O)(=O)O [Ethanesulfonate]
maximal culture density [1]: 1.58
maximal culture density [2]: 0.214
maximal culture density [3]: 0.238
maximal culture density [4]: 0.197
maximal culture density [5]: 1.6
maximal culture density [6]: 0.477
maximal culture density [7]: 1.58
maximal culture density [8]: 0.209
maximal culture density [9]: 1.76
maximal culture density [10]: 0.215
maximal culture density [11]: 1.75
maximal culture density [12]: 0.209
maximal culture density [13]: 0.22
maximal growth rate [14]: 0.0681
maximal growth rate [15]: 0.00304
maximal growth rate [16]: 0.00641
maximal growth rate [17]: 0.00379
maximal growth rate [18]: 0.00347
maximal growth rate [19]: 0.0594
maximal growth rate [20]: 0.0175
maximal growth rate [21]: 0.076
maximal growth rate [22]: 0.00368
maximal growth rate [23]: 0.0784
maximal growth rate [24]: 0.00424
maximal growth rate [25]: 0.081
maximal growth rate [26]: 0.00278
maximal growth rate [27]: 0.00579
maximal growth rate [28]: 0.0735
maximal growth rate [29]: 0.00466
maximal growth rate [30]: 0.00513
maximal growth rate [31]: 0.0754
maximal growth rate [32]: 0.0037
maximal growth rate [33]: 0.0141
maximal growth rate [34]: 0.00396

CCCS(=O)(=O)O [Propanesulfonate]
maximal culture density [1]: 1.56
maximal culture density [2]: 0.263
maximal culture density [3]: 0.249
maximal culture density [4]: 0.232
maximal culture density [5]: 1.88
maximal culture density [6]: 0.486
maximal culture density [7]: 1.6
maximal culture density [8]: 0.232
maximal culture density [9]: 1.69
maximal culture density [10]: 0.212
maximal culture density [11]: 1.7
maximal culture density [12]: 0.231
maximal culture density [13]: 0.212
maximal growth rate [14]: 0.0691
maximal growth rate [15]: 0.0026
maximal growth rate [16]: 0.00692
maximal growth rate [17]: 0.00555
maximal growth rate [18]: 0.00365
maximal growth rate [19]: 0.0162
maximal growth rate [20]: 0.0176
maximal growth rate [21]: 0.0797
maximal growth rate [22]: 0.00399
maximal growth rate [23]: 0.0825
maximal growth rate [24]: 0.0042
maximal growth rate [25]: 0.0773
maximal growth rate [26]: 0.00267
maximal growth rate [27]: 0.00627
maximal growth rate [28]: 0.0748
maximal growth rate [29]: 0.00415
maximal growth rate [30]: 0.00486
maximal growth rate [31]: 0.0792
maximal growth rate [32]: 0.00401
maximal growth rate [33]: 0.0143
maximal growth rate [34]: 0.00331

CSCC[C@H](N)C(=O)O [Methionine]
maximal culture density [1]: 1.55
maximal culture density [2]: 1.59
maximal culture density [3]: 1.59
maximal culture density [4]: 1.59
maximal culture density [5]: 1.59
maximal culture density [6]: 1.59
maximal culture density [7]: 1.61
maximal culture density [8]: 1.6
maximal culture density [9]: 1.68
maximal culture density [10]: 1.69
maximal culture density [11]: 1.63
maximal culture density [12]: 1.6
maximal culture density [13]: 1.58
maximal growth rate [14]: 0.129
maximal growth rate [15]: 0.137
maximal growth rate [16]: 0.142
maximal growth rate [17]: 0.136
maximal growth rate [18]: 0.144
maximal growth rate [19]: 0.139
maximal growth rate [20]: 0.143
maximal growth rate [21]: 0.145
maximal growth rate [22]: 0.139
maximal growth rate [23]: 0.13
maximal growth rate [24]: 0.131
maximal growth rate [25]: 0.138
maximal growth rate [26]: 0.138
maximal growth rate [27]: 0.13
maximal growth rate [28]: 0.131
maximal growth rate [29]: 0.141
maximal growth rate [30]: 0.123
maximal growth rate [31]: 0.127
maximal growth rate [32]: 0.139
maximal growth rate [33]: 0.138
maximal growth rate [34]: 0.139

O=S(=O)(O)CO [Hydroxymethane sulfonate]
maximal culture density [1]: 1.59
maximal culture density [2]: 1.04
maximal culture density [3]: 0.267
maximal culture density [4]: 0.195
maximal culture density [5]: 1.59
maximal culture density [6]: 1.6
maximal culture density [7]: 1.61
maximal culture density [8]: 0.207
maximal culture density [9]: 1.73
maximal culture density [10]: 0.212
maximal culture density [11]: 1.66
maximal culture density [12]: 0.207
maximal culture density [13]: 0.208
maximal growth rate [14]: 0.0972
maximal growth rate [15]: 0.0032
maximal growth rate [16]: 0.00603
maximal growth rate [17]: 0.00489
maximal growth rate [18]: 0.00319
maximal growth rate [19]: 0.0756
maximal growth rate [20]: 0.0343
maximal growth rate [21]: 0.121
maximal growth rate [22]: 0.00357
maximal growth rate [23]: 0.114
maximal growth rate [24]: 0.00402
maximal growth rate [25]: 0.107
maximal growth rate [26]: 0.00325
maximal growth rate [27]: 0.00603
maximal growth rate [28]: 0.109
maximal growth rate [29]: 0.00406
maximal growth rate [30]: 0.00499
maximal growth rate [31]: 0.0594
maximal growth rate [32]: 0.00358
maximal growth rate [33]: 0.038
maximal growth rate [34]: 0.00313
